These are literature values, as cited in US20170065561A1, “METHODS OF CANCER THERAPY” (CAMBRIDGE ENTERPRISE LIMITED, priority 2014, published 2017).

The data set relates to type 1 (non-neuronopathic) Gaucher disease. The conditions noted are these: type 1 Gaucher disease; cited from earlier work.

For `CCCCN1C[C@H](O)[C@@H](O)[C@H](O)[C@H]1CO` [N-butyldeoxynojirimycin], the “therapeutic action in clinical studies” value is listed as “small therapeutic action”.
